Source: ChEMBL document CHEMBL3352083, “Antibacterial activity of novel benzopolycyclic amines” (Bioorg Med Chem, 2015)
≈ marks a conversion by molar mass, not a printed value. Calls of active or inactive are those of the source. The rule behind the calls is not given here.

How the values were obtained:
[1] = system: Staphylococcus aureus; assay: Antimicrobial activity against Staphylococcus aureus CECT 86 ATCC 12600 incubated for 18 hrs by microplate reader based assay; format: functional; settings: CECT 86 ATCC 12600, 18 h; for MIC: read-out: MIC100
[2] = system: Pseudomonas aeruginosa; assay: Antimicrobial activity against Pseudomonas aeruginosa PAO1 CECT 4122 ATCC 15692 incubated for 18 hrs by microplate reader based assay; format: functional; settings: for MIC: read-out: MIC100
[3] = Toxicity against macrophages (unknown origin) assessed as reduction in cell viability after 24 to 48 hrs by MTT assay; format: cell-based, Macrophage
[4] = Selectivity index, ratio of CC50 for macrophages (unknown origin) to MIC50 for Staphylococcus aureus CECT 86 ATCC 12600; format: functional
[5] = Selectivity index, ratio of CC50 for macrophages (unknown origin) to MIC50 for Staphylococcus epidermidis CECT 231 ATCC 1798; format: functional
[6] = Selectivity index, ratio of CC50 for macrophages (unknown origin) to MIC50 for Enterococcus faecalis CECT 481 ATCC 19433; format: functional
[7] = Selectivity index, ratio of CC50 for macrophages (unknown origin) to MIC50 for Streptococcus mutans CECT 479 ATCC 25175; format: functional
[8] = system: Staphylococcus aureus; assay: Bacteriolytic activity against Staphylococcus aureus CECT 86 ATCC 12600 at 36 uM incubated for 3 hrs by live/dead assay; format: functional, organism-based
[9] = system: Staphylococcus epidermidis; assay: Antimicrobial activity against Staphylococcus epidermidis CECT 231 ATCC 1798 incubated for 18 hrs by microplate reader based assay; format: functional; settings: CECT 231 ATCC 1798, 18 h
[10] = Antimicrobial activity against Streptococcus mutans CECT 479 ATCC 25175 incubated for 18 hrs by microplate reader based assay; format: functional, Streptococcus mutans ATCC 25175; settings: CECT 479, 18 h
[11] = system: Staphylococcus aureus; assay: Anti-biofilm activity against Staphylococcus aureus CECT 86 ATCC 12600 incubated for 24 to 48 hrs; format: functional
[12] = system: Staphylococcus aureus; assay: Antimicrobial activity against methicillin-resistant Staphylococcus aureus incubated for 18 hrs by microplate reader based assay; format: functional
[13] = system: Burkholderia cenocepacia; assay: Antimicrobial activity against Burkholderia cenocepacia J2315 incubated for 18 hrs by microplate reader based assay; format: functional; settings: J2315, 18 h
[14] = Antimicrobial activity against Enterococcus faecalis CECT 481 ATCC 19433 incubated for 18 hrs by microplate reader based assay; format: functional, Enterococcus faecalis ATCC 19433; settings: CECT 481, 18 h
[15] = Selectivity index, ratio of CC50 for macrophages (unknown origin) to MIC50 for methicillin-resistant Staphylococcus aureus; format: functional
[16] = PAO1 CECT 4122 ATCC 15692, 18 h

For `CN(C)C12CC3CC(C)(CC(C1)c1ccccc13)O2`, the MIC50 [1] was over 1000 µM and the MIC50 [2] was “inactive”.

`CN(C)C12CC3CC(O)(CC(C1)c1ccccc13)C2` gave an MIC50 [1] of over 1000 µM, an MIC [1] of over 10000 µM and an MIC50 [2, 16] of under 2500 µM. The MIC [2, 16] was 5000 µM (≈ 1290 µg/mL) and the CC50 [3] was over 100 µM.

With `CCN(CC)C12CC3CC(C)(CC(C1)c1ccccc13)O2` the MIC50 [1] was over 1000 µM and the MIC50 [2] was “inactive”.

For `NC12CC3CC(C1)c1ccccc1C(C3)C2`, the MIC50 [1] was 17 µM (≈ 3.63 µg/mL), the MIC [1] was over 39 µM and the MIC50 [2] was “inactive”. For the same molecule, the CC50 [3] was 58.5 µM and the “Selectivity Index” value [4] was 3.4.

`O=C(O)c1cn(C2CC2)c2cc(N3CCNCC3)c(F)cc2c1=O` [CIPROFLOXACIN] gave an MIC50 [1] of 0.3 µM (≈ 0.0994 µg/mL) and an MIC50 [2, 16] of 1.2 µM (≈ 0.398 µg/mL).

In the case of `CN(C)C12CC3CC(Cl)(CC(C1)c1ccccc13)C2`, the MIC50 [1] is reported as under 625 µM and the MIC [1] is reported as under 1250 µM.

With `C#CCNC12CC3CC(CC(C1)c1ccccc13)O2` the MIC50 [1] was over 1000 µM and the MIC50 [2] was “inactive”.

For `CC(=O)NC12CC3CC(C)(CC(C1)c1ccccc13)O2`, the MIC50 [1] was over 1000 µM and the MIC50 [2] was “inactive”.

In the case of `CN(C)C12CC3CC(C1)c1ccccc1C(C3)C2`, the MIC50 [1] is reported as 304 µM (≈ 73.4 µg/mL), the MIC [1] is reported as under 625 µM and the MIC50 [2] is reported as “inactive”. For the same molecule, the CC50 [3] was 44.5 µM and the “Selectivity Index” value [4] was 0.15.

In the case of `c1ccc(CN(Cc2ccccc2)C23CC4CC(CC(C2)c2ccccc24)O3)cc1`, the MIC50 [1] is reported as over 1000 µM and the MIC50 [2] is reported as “inactive”.

For `CC12CC3CC(NCc4ccccc4)(CC(C1)c1ccccc13)C2`, the MIC50 [1] was over 1000 µM and the MIC50 [2] was “inactive”.

In the case of `CC12CC3CC(NCC(N)=O)(CC(C1)c1ccccc13)C2`, the MIC50 [1] is reported as over 1000 µM and the MIC50 [2] is reported as “inactive”.

For `NC12CC3CC(CC(C1)c1ccccc13)O2`, the MIC50 [1] was over 1000 µM and the MIC50 [2] was “inactive”.

For `NC12CC3CC(F)(CC(C1)c1ccccc13)C2`, the MIC50 [1] was 95 µM (≈ 22 µg/mL), the MIC [1] was under 312 µM and the MIC50 [2] was “inactive”.

Work on `Cl.NC12CC3CC(Cl)(CC(C1)c1ccccc13)C2` yielded an MIC50 [1] of 36 µM, an MIC [1] of under 156 µM and an MIC50 [2, 16] of 1250 µM. For the same molecule, the MIC [2, 16] was over 1250 µM, the “Selectivity Index” value [5] was 4.84 and the “Selectivity Index” value [6] was 6.05. The “Selectivity Index” value [7] was 6.05, the Activity [8] was “Active” and the MIC50 [9] was 75 µM. It also gave an MIC ([9]; read-out: MIC100) of under 250 µM, a CC50 [3] of 363 µM and an MIC50 [10] of 60 µM. The MIC ([10]; read-out: MIC100) was over 250 µM, the MBIC50 [11] was 45 µM and the MIC50 [12] was 75 µM. It also gave an MIC ([12]; read-out: MIC100) of under 180 µM, an MIC50 [13] of under 125 µM and an MIC ([13]; read-out: MIC100) of over 250 µM. The “Selectivity Index” value [4] was 10.1, the MIC50 [14] was 60 µM and the MIC ([14]; read-out: MIC100) was over 250 µM. The “Selectivity Index” value [15] was 4.84.

In the case of `CN(C)C12CC3CC(F)(CC(C1)c1ccccc13)C2`, the MIC50 [1] is reported as over 1000 µM and the MIC50 [2] is reported as “inactive”.

In the case of `CN(Cc1ccccc1)C12CC3CC(C)(CC(C1)c1ccccc13)C2`, the MIC50 [1] is reported as over 1000 µM and the MIC50 [2] is reported as “inactive”.

`NC12CC3CC(F)(CC(C1)c1cc([N+](=O)[O-])ccc13)C2` (stereo not given) showed an MIC50 [1] of 125 µM (≈ 34.5 µg/mL) and an MIC [1] of under 312 µM.

For `CC12CC3CC(N)(CC(C1)c1ccccc13)C2`, the MIC50 [1] was over 1000 µM and the MIC50 [2] was “inactive”.

For `NNC12CC3CC(CC(C1)c1ccccc13)O2`, the MIC50 [1] was over 1000 µM and the MIC50 [2] was “inactive”.

`Nc1ccc2c(c1)C1CC3(N)CC2CC(F)(C1)C3` (stereo not given) showed an MIC50 [1] of under 375 µM and an MIC [1] of under 1250 µM.

With `c1ccc(CNC23CC4CC(CC(C2)c2ccccc24)O3)cc1` the MIC50 [1] was over 1000 µM and the MIC50 [2] was “inactive”.

With `CN(C)C12CC3CC(F)(CC(C1)c1cc([N+](=O)[O-])ccc13)C2` (stereo not given) the MIC50 [1] was under 425 µM and the MIC [1] was under 1250 µM.

For `CN(C)C12CC3CC(C)(CC(C1)c1ccccc13)C2`, the MIC50 [1] was over 1000 µM and the MIC50 [2] was “inactive”.

With `CN(Cc1ccccc1)C12CC3CC(CC(C1)c1ccccc13)O2` the MIC50 [1] was over 1000 µM and the MIC50 [2] was “inactive”.
